ChEMBL document CHEMBL3351912, “Influence of azide incorporation on binding affinity by small papain inhibitors” (Bioorg Med Chem, 2014)

What follows are molecules tested against T1, Papain (Carica papaya, UniProt P00784) (assay: Inhibition of papaya papain using Z-Phe-Arg-pNA substrate by spectrophotometry).
T1 sequence (P00784 whole entry): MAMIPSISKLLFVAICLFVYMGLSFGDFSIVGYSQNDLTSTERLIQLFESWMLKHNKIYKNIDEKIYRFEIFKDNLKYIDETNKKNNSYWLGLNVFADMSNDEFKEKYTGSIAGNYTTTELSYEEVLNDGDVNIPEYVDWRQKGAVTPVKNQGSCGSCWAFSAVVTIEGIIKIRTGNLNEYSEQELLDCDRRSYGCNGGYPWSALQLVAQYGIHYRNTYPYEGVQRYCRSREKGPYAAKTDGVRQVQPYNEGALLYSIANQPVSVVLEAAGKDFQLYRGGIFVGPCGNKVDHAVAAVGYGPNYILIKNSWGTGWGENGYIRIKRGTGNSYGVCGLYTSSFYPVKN
Work on `N#CCNC(=O)[C@H](Cc1ccccc1)NC(=O)c1ccc(-c2ccccc2)cc1` yielded an IC50 of 0.22 µM. `CC(C)C[C@H](NC(=O)c1ccc(CN=[N+]=[N-])cc1)C(=O)NCC#N` gave an IC50 of 2.27 µM. For `CCCC[C@H](NC(=O)c1ccc(CN=[N+]=[N-])cc1)C(=O)NCC#N`, the IC50 was 7.1 µM. In the case of `N#CCNC(=O)[C@H](Cc1ccccc1)NC(=O)c1ccc(CN=[N+]=[N-])cc1`, the IC50 is reported as 0.27 µM. Molecule `N#CCNC(=O)[C@H](Cc1ccc(O)cc1)NC(=O)c1ccc(CN=[N+]=[N-])cc1` has an IC50 of 0.28 µM. With `N#CCNC(=O)[C@H](CCc1ccccc1)NC(=O)c1ccc(CN=[N+]=[N-])cc1` the IC50 was 0.71 µM. `N#CCNC(=O)[C@H](CCc1ccc(O)cc1)NC(=O)c1ccc(CN=[N+]=[N-])cc1` was tested, and the IC50 was 0.98 µM. For `CC(C)C[C@H](NC(=O)c1ccc(-c2ccc(CN=[N+]=[N-])cc2)cc1)C(=O)NCC#N`, the IC50 was 1.58 µM. `N#CCNC(=O)[C@H](Cc1ccccc1)NC(=O)c1ccc(-c2ccc(CN=[N+]=[N-])cc2)cc1` was tested, and the IC50 was 13.9 µM. `N#CCNC(=O)[C@H](Cc1ccc(O)cc1)NC(=O)c1ccc(-c2ccc(CN=[N+]=[N-])cc2)cc1` was tested, and the IC50 was 51.2 µM. `CC(C)C[C@H](NC(=O)CN=[N+]=[N-])C(=O)N[C@@H](CC(C)C)C(=O)NCC#N` showed an IC50 of 2.71 µM. `CC(C)C[C@H](NC(=O)CN=[N+]=[N-])C(=O)N[C@@H](Cc1ccccc1)C(=O)NCC#N` gave an IC50 of 2.25 µM. For `N#CCNC(=O)[C@H](Cc1ccccc1)NC(=O)[C@H](Cc1ccccc1)NC(=O)CN=[N+]=[N-]`, the IC50 was 3.97 µM. With `N#CCNC(=O)[C@H](Cc1ccccc1)NC(=O)c1ccc(Cn2nnc3c2CC[C@H]2[C@@H](CC3)[C@H]2COC(=O)NCCOCCOCCN)cc1` the IC50 was 0.35 µM. Work on `N#CCNC(=O)[C@H](Cc1ccccc1)NC(=O)c1ccc(Cn2nnc3c2-c2ccccc2CN(C(=O)CCCC(=O)NCCOCCOCCN)c2ccccc2-3)cc1` yielded an IC50 of 5.98 µM. For `N#CCNC(=O)[C@H](Cc1ccccc1)NC(=O)c1ccccc1`, the IC50 was 0.36 µM.
